Assay results: US20230041743A1, “1,8-NAPHTHYRIDIN-2-ONE COMPOUNDS FOR THE TREATMENT OF AUTOIMMUNE DISEASE” (Hoffmann-La Roche Inc., priority 2019, published 2023)

Biological target: T1, human TLR8 (Homo sapiens, UniProt Q9NR97)
T1 construct: host or cells: HEK293 (HEK-Blue hTLR8)
T1 sequence (Q9NR97 27-1041): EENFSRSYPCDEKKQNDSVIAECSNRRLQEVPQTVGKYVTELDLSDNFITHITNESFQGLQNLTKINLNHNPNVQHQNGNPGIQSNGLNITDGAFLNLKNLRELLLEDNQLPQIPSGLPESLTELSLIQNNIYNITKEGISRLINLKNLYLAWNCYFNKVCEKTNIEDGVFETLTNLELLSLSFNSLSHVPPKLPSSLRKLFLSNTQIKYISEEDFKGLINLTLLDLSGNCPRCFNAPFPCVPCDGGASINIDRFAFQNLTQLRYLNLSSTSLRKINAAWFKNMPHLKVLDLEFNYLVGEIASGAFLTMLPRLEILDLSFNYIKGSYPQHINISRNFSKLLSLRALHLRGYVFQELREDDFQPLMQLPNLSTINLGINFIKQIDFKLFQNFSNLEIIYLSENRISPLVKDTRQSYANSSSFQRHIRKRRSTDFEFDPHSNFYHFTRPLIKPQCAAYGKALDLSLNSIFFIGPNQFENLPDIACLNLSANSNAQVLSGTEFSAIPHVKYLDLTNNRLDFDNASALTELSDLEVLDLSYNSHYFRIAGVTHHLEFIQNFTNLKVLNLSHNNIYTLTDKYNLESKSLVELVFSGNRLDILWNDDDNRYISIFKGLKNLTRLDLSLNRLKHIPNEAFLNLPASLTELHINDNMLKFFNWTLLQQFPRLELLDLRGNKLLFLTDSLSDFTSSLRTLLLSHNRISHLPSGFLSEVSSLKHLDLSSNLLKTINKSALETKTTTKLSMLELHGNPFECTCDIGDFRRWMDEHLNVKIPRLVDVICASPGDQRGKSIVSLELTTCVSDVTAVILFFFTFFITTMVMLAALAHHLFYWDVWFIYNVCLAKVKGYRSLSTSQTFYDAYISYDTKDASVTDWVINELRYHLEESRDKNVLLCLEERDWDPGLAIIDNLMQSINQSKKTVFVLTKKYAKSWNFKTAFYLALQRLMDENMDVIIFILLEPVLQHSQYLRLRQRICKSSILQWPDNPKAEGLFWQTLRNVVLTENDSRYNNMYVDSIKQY
Assay: HEK293-Blue-hTLR-8 cells assay (SEAP reporter, R848 stimulation)
Type: cell-based
Details: HEK293-Blue-hTLR8 cells, R848 ligand, 20 hrs incubation; read-out: HEK/hTLR8 IC50
From the text: HEK293-Blue-hTLR-8 Cells Assay:
A stable HEK293-Blue-hTLR-8 cell line was purchased from InvivoGen (Cat. #: hkb-htlr8, San Diego, Calif., USA). These cells were originally designed for studying the stimulation of human TLR8 by monitoring the activation of NF-κB. A SEAP (secreted embryonic alkaline phosphatase) reporter gene was placed under the control of the IFN-β minimal promoter fused to five NF-κB and AP-1-binding sites. The SEAP was induced by activating NF-κB and AP-1 via stimulating HEK-Blue hTLR8 cells with TLR8 ligands. Therefore the reporter expression was declined by TLR8 antagonist under the stimulation of a ligand, such as R848, for incubation of 20 hrs. The cell culture supernatant SEAP reporter activity was determined using QUANTI-Blue™ kit (Cat. #: rep-qb1, Invivogen, San Diego, Ca, USA) at a wavelength of 640 nm, a detection medium that turns purple or blue in the presence of alkaline phosphatase.
HEK293-Blue-hTLR8 cells were incubated at a density of 250,000-450,000 cells/mL in a volume of 170 μL in a 96-well plate in Dulbecco's Modified Eagle's medium (DMEM) containing 4.5 g/L glucose, 50 U/mL penicillin, […], […], 2 mM L-glutamine, 10% (v/v) heat-inactivated fetal bovine serum with addition of 20 μL test compound in a serial dilution in the presence of final DMSO at 1% and 10 μL of 60 uM R848 in above DMEM, perform incubation under 37° C. in a CO2 incubator for 20 hrs. Then 20 μL of the supernatant from each well was incubated with 180 μL Quanti-blue substrate solution at 37° C. for 2 hrs and the absorbance was read at 620-655 nm using a spectrophotometer. The signaling pathway that TLR8 activation leads to downstream NF-κB activation has been widely accepted, and therefore similar reporter assay was modified for evaluating TLR8 antagonist.

| SMILES | IC50 [nM] |
| --- | --- |
| C[C@@H]1CN(c2cc(=O)n(C)c3ncccc23)C[C@@H]2c3ccc(N4CCOC5(CNC5)C4)cc3CN12 [Example 11, 4-[(4R,10bS)-4-methyl-8-(5-oxa-2,8-diazaspiro[3.5]nonan-8-yl)-3,4,6,10b-tetrahydro-1H-pyrazino[2,1-a]isoindol-2-yl]-1-methyl-1,8-naphthyridin-2-one] | 24.1 |
| C[C@@H]1CN(c2cc(=O)n(C)c3ncccc23)C[C@@H]2c3ccc(N4CC[C@@](C)(N)C4)cc3CN12 [Example 4, 4-[(4R,10bS)-8-[(3R)-3-amino-3-methyl-pyrrolidin-1-yl]-4-methyl-3,4,6,10b-tetrahydro-1H-pyrazino[2,1-a]isoindol-2-yl]-1-methyl-1,8-naphthyridin-2-one] | 2.9 |
| C[C@@H]1CN(c2cc(=O)n(C)c3ncccc23)C[C@@H]2c3ccc(N4CCN[C@@H](C)C4)cc3CN12 [Example 13, 4-[(4R,10bS)-4-methyl-8-[(3S)-3-methylpiperazin-1-yl]-3,4,6,10b-tetrahydro-1H-pyrazino[2,1-a]isoindol-2-yl]-1-methyl-1,8-naphthyridin-2-one] | 1.3 |
| C[C@@H]1CN(c2cc(=O)n(C)c3ncccc23)C[C@@H]2c3ccc(N4C[C@@H](N)[C@@H](F)C4)cc3CN12 [Example 7, 4-[(4R,10bS)-8-[(3R,4S)-3-amino-4-fluoro-pyrrolidin-1-yl]-4-methyl-3,4,6,10b-tetrahydro-1H-pyrazino[2,1-a]isoindol-2-yl]-1-methyl-1,8-naphthyridin-2-one] | 5.9 |
| C[C@@H]1CN(c2cc(=O)n(C)c3ncccc23)C[C@@H]2c3ccc(C4CCNC4)cc3CN12 (stereo partly drawn) [Example 26, 4-[(4R,10bS)-4-methyl-8-pyrrolidin-3-yl-3,4,6,10b-tetrahydro-1H-pyrazino[2,1-a]isoindol-2-yl]-1-methyl-1,8-naphthyridin-2-one] | 6.5 |
| C[C@@H]1CN(c2cc(=O)n(C)c3ncccc23)C[C@@H]2c3ccc(C4CCCNC4)cc3CN12 (stereo partly drawn) [Example 25, 4-[(4R,10bS)-4-methyl-8-(3-piperidyl)-3,4,6,10b-tetrahydro-1H-pyrazino[2,1-a]isoindol-2-yl]-1-methyl-1,8-naphthyridin-2-one] | 2.6 |
| C[C@@H]1CN(c2cc(=O)n(C)c3ncccc23)C[C@@H]2c3ccc([C@H]4C[C@H]5COC[C@@H](C4)N5)cc3CN12 [Example 28A, 4-[(4R,10bS)-4-methyl-8-(endo-3-oxa-9-azabicyclo[3.3.1]nonan-7-yl)-3,4,6,10b-tetrahydro-1H-pyrazino[2,1-a]isoindol-2-yl]-1-methyl-1,8-naphthyridin-2-one] | 1.7 |
| CO[C@H]1CCN(c2ccc3c(c2)CN2[C@H](C)CN(c4cc(=O)n(C)c5ncccc45)C[C@H]32)C[C@@H]1N [Example 9, 4-[(4R,10bS)-8-[(3S,4S)-3-amino-4-methoxy-1-piperidyl]-4-methyl-3,4,6,10b-tetrahydro-1H-pyrazino[2,1-a]isoindol-2-yl]-1-methyl-1,8-naphthyridin-2-one] | 1.5 |
| C[C@@H]1CN(c2cc(=O)n(C)c3ncccc23)C[C@@H]2c3ccc(N4C[C@H]5NCCO[C@@H]5C4)cc3CN12 [Example 6, 4-[(4R,10bS)-8-[(4aR,7aR)-3,4,4a,5,7,7a-hexahydro-2H-pyrrolo[3,4-b][1,4]oxazin-6-yl]-4-methyl-3,4,6,10b-tetrahydro-1H-pyrazino[2,1-a]isoindol-2-yl]-1-methyl-1,8-naphthyridin-2-one] | 4.9 |
| C[C@@H]1CN(c2cc(=O)n(C)c3ncccc23)C[C@@H]2c3ccc(N4CCOC[C@H](N)C4)cc3CN12 [Example 22, 4-[(4R,10bS)-8-[(6R)-6-amino-1,4-oxazepan-4-yl]-4-methyl-3,4,6,10b-tetrahydro-1H-pyrazino[2,1-a]isoindol-2-yl]-1-methyl-1,8-naphthyridin-2-one] | 4.9 |
| C[C@@H]1CN(c2cc(=O)n(C)c3ncccc23)C[C@@H]2c3ccc(N4CC5(CN(C)C5)C4)cc3CN12 [Example 2, 4-[(4R,10bS)-4-methyl-8-(6-methyl-2,6-diazaspiro[3.3]heptan-2-yl)-3,4,6,10b-tetrahydro-1H-pyrazino[2,1-a]isoindol-2-yl]-1-methyl-1,8-naphthyridin-2-one] | 1.7 |
| C[C@@H]1CN(c2cc(=O)n(C)c3ncccc23)C[C@@H]2c3ccc(N4CC5CCC(C4)N5)cc3CN12 [Example 21, 4-[(4R,10bS)-8-(3,8-diazabicyclo[3.2.1]octan-3-yl)-4-methyl-3,4,6,10b-tetrahydro-1H-pyrazino[2,1-a]isoindol-2-yl]-1-methyl-1,8-naphthyridin-2-one] | 1.8 |
| CO[C@H]1CN(c2ccc3c(c2)CN2[C@H](C)CN(c4cc(=O)n(C)c5ncccc45)C[C@H]32)CC[C@@H]1N [Example 8, 4-[(4R,10bS)-8-[(3S,4S)-4-amino-3-methoxy-1-piperidyl]-4-methyl-3,4,6,10b-tetrahydro-1H-pyrazino[2,1-a]isoindol-2-yl]-1-methyl-1,8-naphthyridin-2-one] | 7.3 |
| C[C@@H]1CNCCN1c1ccc2c(c1)CN1[C@H](C)CN(c3cc(=O)n(C)c4ncccc34)C[C@H]21 [Example 17, 4-[(4R,10bS)-4-methyl-8-[(2R)-2-methylpiperazin-1-yl]-3,4,6,10b-tetrahydro-1H-pyrazino[2,1-a]isoindol-2-yl]-1-methyl-1,8-naphthyridin-2-one] | < 0.3 |
| C[C@@H]1CN(c2cc(=O)n(C)c3ncccc23)C[C@@H]2c3ccc(C4CCNCC4)cc3CN12 [Example 24, 4-[(4R,10bS)-4-methyl-8-(4-piperidyl)-3,4,6,10b-tetrahydro-1H-pyrazino[2,1-a]isoindol-2-yl]-1-methyl-1,8-naphthyridin-2-one] | 1.4 |
| CO[C@@H]1CN(c2ccc3c(c2)CN2[C@H](C)CN(c4cc(=O)n(C)c5ncccc45)C[C@H]32)C[C@H]1N [Example 5, 4-[(4R,10bS)-8-[(3R,4R)-3-amino-4-methoxy-pyrrolidin-1-yl]-4-methyl-3,4,6,10b-tetrahydro-1H-pyrazino[2,1-a]isoindol-2-yl]-1-methyl-1,8-naphthyridin-2-one] | 11.5 |
| C[C@@H]1CN(c2cc(=O)n(C)c3ncccc23)C[C@@H]2c3ccc([C@@H]4C[C@H]5COC[C@@H](C4)N5)cc3CN12 [Example 28B, 4-[(4R,10bS)-4-methyl-8-(exo-3-oxa-9-azabicyclo[3.3.1]nonan-7-yl)-3,4,6,10b-tetrahydro-1H-pyrazino[2,1-a]isoindol-2-yl]-1-methyl-1,8-naphthyridin-2-one] | 4.4 |
| C[C@@H]1CN(c2cc(=O)n(C)c3ncccc23)C[C@@H]2c3ccc(N4CCNCC4)cc3CN12 [Example 12, 4-[(4R,10bS)-4-methyl-8-piperazin-1-yl-3,4,6,10b-tetrahydro-1H-pyrazino[2,1-a]isoindol-2-yl]-1-methyl-1,8-naphthyridin-2-one] | 0.8 |
| C[C@@H]1CN(c2cc(=O)n(C)c3ncccc23)C[C@@H]2c3ccc(N4C[C@H]5C[C@@H]4CN5)cc3CN12 [Example 20, 4-[(4R,10bS)-8-[(1R,4R)-2,5-diazabicyclo[2.2.1]heptan-2-yl]-4-methyl-3,4,6,10b-tetrahydro-1H-pyrazino[2,1-a]isoindol-2-yl]-1-methyl-1,8-naphthyridin-2-one] | 4.5 |
